Laboratory results published in BindingDB's records for doi:10.1016/j.ejmech.2017.02.022 (Svkm'S Dr. Bhanuben Nanavati College of Pharmacy, 2017).

Test: Inhibition of ABCB1 in human MCF7/ADR cells assessed as potentiation of vinblastine-induced cytotoxicity by measuring vinblastine IC50 at IC10 after 7 days by SRB assay

Row | SMILES | IC50
1 | CCN(CC)CCCn1c2ccccc2c(=O)c2cc(C)cc(C)c21 | 14 nM
2 | Cc1cc(C)c2c(c1)c(=O)c1ccccc1n2CCCN(CCO)CCO | 11 nM
3 | Cc1cc(C)c2c(c1)c(=O)c1ccccc1n2CCCCN1CCOCC1 | 4 nM
4 | Cc1cc(C)c2c(c1)c(=O)c1ccccc1n2CCCCN1CCCCC1 | 5 nM
5 | CCN(CC)CCCCn1c2ccccc2c(=O)c2cc(C)cc(C)c21 | 4.1 nM
6 | Cc1cc(C)c2c(c1)c(=O)c1ccccc1n2CCCCN(CCO)CCO | 3.1 nM
7 | Cc1cc(C)c2c(c1)c(=O)c1ccccc1n2CCCCN1CCN(CCO)CC1 | 1.3 nM
8 | Cc1cc(C)c2[nH]c3ccccc3c(=O)c2c1 | 27 nM
9 | Cc1cc(C)c2c(c1)c(=O)c1ccccc1n2CCCN1CCOCC1 | 20 nM
10 | Cc1cc(C)c2c(c1)c(=O)c1ccccc1n2CCCN1CCN(C)CC1 | 17 nM
11 | Cc1cc(C)c2c(c1)c(=O)c1ccccc1n2CCCN1CCCCC1 | 17 nM
12 | Cc1cc(C)c2c(c1)c(=O)c1ccccc1n2CCCN1CCN(CCO)CC1 | 8 nM
13 | Cc1cc(C)c2c(c1)c(=O)c1ccccc1n2CCCCN1CCN(C)CC1 | 10 nM
